# Source: patent US4599204A, “Oxalylamides useful as dental antiplaque agents and inhibitors of connective tissue destruction” (American Cyanamid Company, priority 1985, dated 1986)
# Structures can show the parent of a compound that is named as a salt.
# Key:
# collagenase = conditions: literature / U.S. Pat. No. 4,297,372; cited from earlier work
# [1] = Binding (competition) assay with 14C-6,6'-[ureylenebis(m-phenylenecarbonylimino)]bis[4-hydroxy-2-naphthalenesulfonic acid]disodium salt on tooth powder; conditions: relative to 6,6'-[ureylenebis(m-phenylenecarbonylimino)]bis[4-hydroxy-2-naphthalenesulfonic acid]disodium salt; 1 mg tooth powder, PBS, 37° C., 60 minutes; >1 = less efficient
# Text: Using (radioactive) ^14 C-6,6'-[ureylenebis(m-phenylenecarbonylimino)]bis[4-hydroxy-2-naphthalenesulfonic acid]disodium salt a binding (competition) assay procedure is established which involves an insoluble substrate such as tooth powder which will bind the ^14 C-6,6'-[ureylenebis(m-phenylenecarbonylimino)]bis[4-hydroxy-2-naphthalenesulfonic acid]disodium salt. The amount of ^14 C-6,6'-[ureylenebis(m-phenylenecarbonylimino)]bis[4-hydroxy-2-naphthalenesulfonic acid]disodium salt bound is determined by washing away the unbound radioactive compound and counting CPM (counts per minute) of the insoluble tooth powder/^14 C-6,6'-[ureylenebis(m-phenylenecarbonylimino)]bis[4-hydroxy-2-naphthalenesulfonic acid]disodium salt complex. […] The inhibiting effect of the test compound on binding compared to non-radioactive 6,6'-[ureylenebis(m-phenylenecarbonylimino)]bis[4-hydroxy-2-naphthalenesulfonic acid]disodium salt was determined as follows: A one mg amount of tooth powder was incubated in one ml of phosphate buffered saline (PBS) with 10 μg of ^14 C-6,6'-[ureylenebis(m-phenylenecarbonylimino)]bis[4-hydroxy-2-naphthalenesulfonic acid]disodium salt and varying dose amounts (ranging from 0 to 2 mg) of the same cold (non-radioactive) compound. […]
# [2] = target: T1, human skin fibroblast collagenase (Homo sapiens, UniProt P03956); test: Collagenase Assay, Test Code 006: degradation of 14C-labeled native collagen fibrils by collagenase; format: biochemical; conditions: ratio of weight (μg) for 50% inhibition over that of 6,6'-[ureylenebis(m-phenylenecarbonylimino)]bis[4-hydroxy-2-naphthalenesulfonic acid]disodium salt; test conc.: 30 μg/ml; 37° C., 16 hours; >1 = less active
# T1 construct: endogenous in cells; host or cells: human skin fibroblasts
# T1 sequence (P03956 100-469): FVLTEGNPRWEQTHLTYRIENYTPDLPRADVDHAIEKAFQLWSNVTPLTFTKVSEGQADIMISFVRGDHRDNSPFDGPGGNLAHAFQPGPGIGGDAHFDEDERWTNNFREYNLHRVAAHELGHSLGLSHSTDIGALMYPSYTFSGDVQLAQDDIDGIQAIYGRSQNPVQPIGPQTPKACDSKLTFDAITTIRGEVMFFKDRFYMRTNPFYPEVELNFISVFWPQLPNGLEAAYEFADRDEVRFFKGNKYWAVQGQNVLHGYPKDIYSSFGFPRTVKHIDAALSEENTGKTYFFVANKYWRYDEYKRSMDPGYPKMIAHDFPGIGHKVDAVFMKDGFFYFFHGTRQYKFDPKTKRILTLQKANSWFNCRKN
# Procedure: (i) Collagenase Assay--Test Code 006
# A collagenase assay was performed by a modification of the method of Harper, et al., Biochem., 10, 3035 (1971). In a typical assay (total volume of 0.45 ml), 100 μl of the activated enzyme was added to the ^14 C-labeled collagen fibrils (250 μl) followed by 100 μl of 50 mM cacodylate, pH 7.4, containing 5 mM calcium chloride. After incubation at 37° C. for 16 hours, the tubes were centrifuged in a Beckman microfuge for five minutes at full speed. An aliquot (200 μl) of the supernatant, representing collagenase digestion products of the fibril, was assayed for radioactivity. The effect of the test compound on collagen degradation by collagenase was examined as follows:
# Varying concentrations of the test compound (in distilled water) were added to the assay tubes containing active collagenase (total volume 450 μl) and after 16 hours the amount of radioactivity in the supernatant was determined. Appropriate blanks and trypsin controls were run in parallel.
# The result is expressed as an ID50 collagenase value which represents a ratio of the weight (μg) of the representative compound required for 50% inhibition of collagenase over the weight (μg) of 6,6,-[ureylenebis(m-phenylenecarbonylimino)]bis[4-hydroxy-2-naphthalenesulfonic acid]disodium salt required for 50% inhibition of collagenase.
# [3] = Binding to insoluble collagenous structures
# corneal ulceration [4] = conditions: alkali burned rabbit, applied to the eye; cited from earlier work
# [5] = mechanistic studies; cited from earlier work
# corneal ulceration [6] = conditions: human; cited from earlier work
molecule,measurement,setting,value
O[C@H](CS)[C@H](O)CS (racemic) [dithiothreitol],collagenase inhibition (in words),collagenase,collagenase inhibitors
"c1cnc2c(c1)ccc1cccnc12 [1,10-phenanthroline]",collagenase inhibition (in words),collagenase,collagenase inhibitors
"O=C(Nc1cccc(C(=O)Nc2ccc3cc(S(=O)(=O)O)cc(O)c3c2)c1)C(=O)Nc1cccc(C(=O)Nc2ccc3cc(S(=O)(=O)O)cc(O)c3c2)c1 [6,6'-[Oxalylbis(imino-m-phenylenecarbonylimino)]bis-[4-hydroxy-2-naphthalenesulfonic acid]disodium salt]",ID50 Binding Ratio,[1],1.00
same,ID50 Collagenase Ratio,[2],1.10
"O=C(Nc1cccc(C(=O)Nc2ccc3cc(S(=O)(=O)O)cc(O)c3c2)c1)Nc1cccc(C(=O)Nc2ccc3cc(S(=O)(=O)O)cc(O)c3c2)c1 [6,6'-[ureylenebis(m-phenylenecarbonylimino)]bis[4-hydroxy-2-naphthalenesulfonic acid]disodium salt]",binding to insoluble collagenous structures,[3],"will bind to insoluble collagenous structures such as teeth, dentin, gingiva and the like"
same,"character of binding (saturability, reversibility)",[3],saturable and reversible
same,collagenase inhibition (in words),collagenase,established as an inhibitor of the degradation of collagen
O=C([O-])CN(CCN(CC(=O)[O-])CC(=O)[O-])CC(=O)[O-].[Ca+2].[Ca+2] [Calcium ethylenediaminetetraacetate],reduction of frequency of ulceration,corneal ulceration [4],reduce the frequency of ulceration
F [Fluoride],binding to enamel,[5],binds to enamel
Cc1ccc(C(=O)Nc2ccc(S(=O)(=O)O)c3cc(S(=O)(=O)O)cc(S(=O)(=O)O)c23)cc1NC(=O)c1cccc(NC(=O)Nc2cccc(C(=O)Nc3cc(C(=O)Nc4ccc(S(=O)(=O)O)c5cc(S(=O)(=O)O)cc(S(=O)(=O)O)c45)ccc3C)c2)c1 [Suramin],collagenase inhibition (in words),collagenase,not inhibiting the action of collagenase
CC(=O)N[C@@H](CS)C(=O)O [acetylcysteine],reduction of frequency of ulceration,corneal ulceration [4],reduce the frequency of ulceration
same,effectiveness in treatment of acute and chronic corneal ulceration,corneal ulceration [6],effective in the treatment of acute and chronic corneal ulceration
N[C@@H](CS)C(=O)O [cysteine],effectiveness in treatment of acute and chronic corneal ulceration,corneal ulceration [6],effective in the treatment of acute and chronic corneal ulceration
same,collagenase inhibition (in words),collagenase,collagenase inhibitors
Cc1cc(-c2ccc(/N=N/c3c(S(=O)(=O)O)cc4cc(S(=O)(=O)O)cc(N)c4c3O)c(C)c2)ccc1/N=N/c1c(S(=O)(=O)O)cc2cc(S(=O)(=O)O)cc(N)c2c1O [trypan blue],collagenase inhibition (in words),collagenase,"inhibiting the activity of collagenase, or a proteinase contaminant in the collagenase preparation"
sodium auriothiomalate,collagenase inhibition (in words),collagenase,collagenase inhibitors
α2 -macroglobulin: Naturally occurring collagenase inhibitors include the serum components α2 -macroglobulin,collagenase inhibition (in words),collagenase,collagenase inhibitors
